Patent publication US7262215B2, “N-carbacycle monosubstituted indolocarbazoles as protein kinase inhibitors” (NAD AG, priority 2001, dated 2007)

Key:
Format in all cases: biochemical
Conditions in all cases: 10 μM compound; NA = not active
His tagged ERK2 = His tagged ERK2 (Homo sapiens, UniProt P28482); assay: Extracellular signal Regulated Kinase 2 inhibition assay (ERK2), radioactivity-based
Description: Inhibition of Extracellular Signal Regulated Kinase 2 (ERK 2) Activity
(§1) The ERK2 kinase activity assay utilizes a radioactivity-based format in a 96-well PCR plate with radioactive readout. The ERK2 activity was assayed in a 25 μL assay mixture containing 25 mM HEPES (pH 7.0), 250 μM ATP, […], 1 mM DTT, 2% DMSO, 150 ng/mL Myelin Basic Protein (MBP, Sigma M-1891), and 13.6 ng/mL His tagged ERK2 (specific activity=38.1 nmol/min*mg). Compounds were screened for inhibition of the ERK2 kinase activity at a concentration of 10 μM. The kinase reaction was allowed to proceed at 37° C. for 30 minutes, then reaction was stopped by the addition of 5 μL of 0.5M EDTA (pH 8). 15 μL of each solution were then spotted onto the corresponding square of a filtermat (8×12 glassfibre mat 90×120 mm. PE-Wallac 1450–421). The filtermat was allowed to dry and washed once with 10% TCA, 2% PPA, 500 mM NaCl each for 30 minutes at rt. Two further washings in 10% TCA and 2% PPA for 30 minutes were performed, then a final 30 minute wash in 99% EtOH at rt was done and the filtermat was air dried. The dry filtermat was then placed in a sample bag with a Meltilex sheet (Melt-on scintillator sheets […], PE-Wallac 1450–441 for filtermat A) over the filtermat. The bag was trimmed to fit into the microplate heatsealer (PE-Wallac 1495–021). The heatsealer is used to melt the Meltilex on the filtermat. The bag containing the filtermat and the melted Meltilex was then placed into a filter cassette and counted using the Microbeta Jet Scintillation and Luminescence Counter PE-Wallac 1450.

[1] = target: T1, PKA (catalytic subunit, bovine heart) (Bos taurus, UniProt P00517); assay: Protein Kinase A inhibition assay (PKA), radioactivity-based
T1 construct: PKA (catalytic subunit, bovine heart, Calbiochem 539486); purchased Calbiochem 539486; host or cells: bovine heart (tissue-derived)
Description: as §1
Inhibition of Protein Kinase A Activity
The PKA kinase activity assay utilizes a radioactivity-based format in a 96-well PCR plate with radioactive readout. The PKA activity was assayed in a 25 μL assay mixture containing 25 mM HEPES (pH 7.0), 250 μM ATP, 10 mM MgCl2, 1 mM DTT, 1 mM EBTA (pH 8), 2% DMSO, 250 ng/mL Histone H2B (Roche 223 514), and 2 ng/mL PKA (catalytic subunit, bovine heart, Calbiochem 539486, specific activity=1170 μmol/min*μg). Compounds were screened for inhibition of the PKA kinase activity at a concentration of 10 μM. The kinase reaction was allowed to proceed at 37° C. for 30 minutes, then the reaction was stopped by addition of 5 μL of 0.5M EDTA (pH 8). The remainder of the protocol is identical to the one reported for ERK2.

PKC (rat brain) = assay: Protein Kinase C inhibition assay (PKC), radioactivity-based
Description: as §1
Inhibition of Protein Kinase C Activity
The PKA kinase activity assay utilizes a radioactivity-based format in a 96-well PCR plate with radioactive readout. The PKA activity was assayed in a 25 μL assay mixture containing 25 mM HEPES (pH 7.0), 250 μM ATP, 10 mM MgCl2, 1 mM DTT, 1 mM EDTA (pH 8), 2 mM CaCl2, 2% DMSO, 250 ng/mL Histone H1 (Roche 1 004 875), and 165 ng/mL PKC (rat brain, Calbiochem 539494, specific activity=1600 nmol/min*mg), Compounds were screened for inhibition of the PKC kinase activity at a concentration of 10 μM. The kinase reaction was allowed to proceed at 37° C. for 30 minutes, then the reaction was stopped by addition of 5 μL of 0.5M EDTA (pH 8). The remainder of the protocol is identical to the one reported for ERK2.

GSK3β = target: T2, GSK3β (Homo sapiens, UniProt P49841); assay: Glycogen Synthase Kinase 3β inhibition assay, radioactivity-based
T2 construct: purchased Upstate Discovery
Description: Inhibition of Glycogen Synthase Kinase 3, Activity
The GSK3, kinase activity assay utilizes a radioactivity-based format in a 96-well PCR plate with radioactive readout. The GSK3β activity was assayed in a 25 μL assay mixture containing 8 mM HEPES (pH 7.0), 250 μM ATP, 0.2 mM EDTA (pH 8), 2% DMSO, 250 ng/mL Myelin Basic Protein (MBP, Sigma M-1891), and 12 ng/mL GSK3 (Upstate Discovery, specific activity=607 nmol/min*GS2 peptide, concentration of 6.05 mg/mL). Compounds were screened for inhibition of the GSK3 P kinase activity at a concentration of 10 μM. The kinase reaction was allowed to proceed at 37° C. for 30 minutes, then the reaction was stopped by addition of 5 μL of 0.5M EDTA (pH 8).

Chain of His tagged ERK2 (P28482 whole entry): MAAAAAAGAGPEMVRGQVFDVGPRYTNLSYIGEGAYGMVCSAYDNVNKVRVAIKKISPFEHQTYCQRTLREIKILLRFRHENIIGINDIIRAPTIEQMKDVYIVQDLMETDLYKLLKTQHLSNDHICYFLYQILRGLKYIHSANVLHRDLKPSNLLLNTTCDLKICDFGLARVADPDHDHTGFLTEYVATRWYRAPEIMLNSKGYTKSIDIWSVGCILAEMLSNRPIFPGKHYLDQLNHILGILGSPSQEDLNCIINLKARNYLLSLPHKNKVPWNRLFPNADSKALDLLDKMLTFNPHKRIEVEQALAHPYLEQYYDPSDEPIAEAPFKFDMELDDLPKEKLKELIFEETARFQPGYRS
T2 sequence (P49841 whole entry, species assumed): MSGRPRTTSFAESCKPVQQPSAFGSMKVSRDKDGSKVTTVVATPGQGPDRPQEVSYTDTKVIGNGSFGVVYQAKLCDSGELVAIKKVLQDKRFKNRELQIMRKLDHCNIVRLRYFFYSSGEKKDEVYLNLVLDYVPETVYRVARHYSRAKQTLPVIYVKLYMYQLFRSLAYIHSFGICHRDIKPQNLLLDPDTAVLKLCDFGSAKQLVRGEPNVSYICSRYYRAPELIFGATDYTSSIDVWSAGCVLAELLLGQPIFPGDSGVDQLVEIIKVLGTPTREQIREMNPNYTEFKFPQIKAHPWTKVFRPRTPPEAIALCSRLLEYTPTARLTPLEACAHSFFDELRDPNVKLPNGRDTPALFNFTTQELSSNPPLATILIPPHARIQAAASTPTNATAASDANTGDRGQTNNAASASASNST

inhibition at 10 µM (His tagged ERK2) [%] | inhibition at 10 µM [1] [%] | % Inhibition PKC (PKC (rat brain)) [%] | inhibition at 10 µM (GSK3β) [%] | SMILES
84.2 | 18.8 | 45.48 | 83.4 | O=C1NC(=O)c2c1c1c3ccccc3[nH]c1c1c2c2ccccc2n1C1C=C[C@@H](O)C1 (mixture of isomers) [NAD006]
97.8 | 98 | 81.34 | 69.8 | N[C@H]1C=CC(n2c3ccccc3c3c4c(c5c6ccccc6[nH]c5c32)C(=O)NC4=O)C1 (mixture of isomers) [NAD040]
57.2 | 43.4 | 41.98 | 52.2 | O=C1NC(=O)c2c1c1c3ccccc3[nH]c1c1c2c2ccccc2n1C1C=C[C@H](Cl)CC1 (mixture of isomers) [NAD085]
53.4 | 17.1 | 52.00 | 25.4 | CC(=O)O[C@H]1C=CC(n2c3ccccc3c3c4c(c5c6ccccc6[nH]c5c32)C(=O)NC4=O)CC1 (mixture of isomers) [NAD106]
24.3 | – | 67.47 | 18.4 | N[C@@H]1C=CC(n2c3ccccc3c3c4c(c5c6ccccc6[nH]c5c32)C(=O)NC4=O)C1 (mixture of isomers) [NAD116]
60 | – | 68.74 | 25 | CCOC(=O)N1C(=O)c2c(c3c4ccccc4n(C4C=C[C@H](NC(C)=O)C4)c3c3[nH]c4ccccc4c23)C1=O (mixture of isomers) [NAD117]
43.2 | 17.3 | 84.32 | 60.8 | CC(=O)O[C@@H]1C=CC(n2c3ccccc3c3c4c(c5c6ccccc6[nH]c5c32)C(=O)NC4=O)CC1 (mixture of isomers) [NAD135]
41.6 | 26.5 | 111.91 | 54.1 | O=C1NC(=O)c2c1c1c3ccccc3[nH]c1c1c2c2ccccc2n1C1C=C[C@H](Nc2ccccc2)CC1 (mixture of isomers) [NAD148]
93.3 | 35.2 | 55.37 | 94.1 | O=C1NC(=O)c2c1c1c3ccccc3[nH]c1c1c2c2ccccc2n1C1CC[C@H](O)[C@@H](O)[C@H]1O (mixture of isomers) [NAD149]
– | – | 55.37 | 20.2 | CN1C(=O)c2c(c3c4ccccc4n(C4C[C@H](O)[C@@H](O)[C@H]4O)c3c3[nH]c4ccccc4c23)C1=O (mixture of isomers) [NAD157]
23.3 | – | 72.37 | 30.2 | CC(=O)O[C@H]1CC(n2c3ccccc3c3c4c(c5c6ccccc6[nH]c5c32)C(=O)NC4=O)[C@H](O)[C@@H]1O (mixture of isomers) [NAD160]
37.4 | 19.9 | 58.82 | 61.2 | O=C1NC(=O)c2c1c1c3ccccc3[nH]c1c1c2c2ccccc2n1C1C=C[C@H](O)C1 (mixture of isomers) [NAD162]
– | – | 102.77 | – | COc1ccc(CN2C(=O)c3c(c4c5ccccc5n(C5CCC(O)CC5)c4c4[nH]c5ccccc5c34)C2=O)cc1 (centres unmarked) [NAD133]
